Test results taken from the kinase profiling compilation of Christmann-Franck et al. (2016).

Tests used:
Assay in all cases: KINOMEscan competition binding
Conditions in all cases: compound 1.0 µM
[1] = molecular target: ACVR2A (human) (UniProt P27037)
[2] = molecular target: ADCK3 (human) (UniProt Q8NI60)
[3] = molecular target: AURKA (human) (UniProt O14965)
[4] = molecular target: CAMK4 (human) (UniProt Q16566)
[5] = molecular target: CDK19 (human) (UniProt Q9BWU1)
[6] = molecular target: CLK1 (human) (UniProt P49759)
[7] = test system: CPK1 (P.falciparum)
[8] = molecular target: DAPK2 (human) (UniProt Q9UIK4)
[9] = molecular target: DDR1 (human) (UniProt Q08345)
[10] = test system: EGFR (human), P00533 [L858R]
[11] = test system: EGFR (human), P00533 [P753S; 747-752 del]
[12] = test system: EGFR (human), P00533 [T790M]
[13] = molecular target: EIF2AK2 (human) (UniProt P19525)
[14] = molecular target: FGFR4 (human) (UniProt P22455)
[15] = molecular target: FLT1 (human) (UniProt P17948)
[16] = test system: FLT3 (human), P36888 [D835H]
[17] = test system: FLT3 (human), P36888 [D835Y]
[18] = test system: FLT3 (human), P36888 [N841I]
[19] = molecular target: JAK1 JH2 pseudokinase (human) (UniProt P23458)
[20] = molecular target: KIT (human) (UniProt P10721)
[21] = test system: KIT (human), P10721 [D816V]
[22] = molecular target: LRRK2 (human) (UniProt Q5S007)
[23] = test system: LRRK2 (human), Q5S007 [G2019S]
[24] = molecular target: MAP3K3 (human) (UniProt Q99759)
[25] = molecular target: MAP3K5 (human) (UniProt Q99683)
[26] = molecular target: MAP4K5 (human) (UniProt Q9Y4K4)
[27] = molecular target: MAPK14 (human) (UniProt Q16539)
[28] = molecular target: MAST1 (human) (UniProt Q9Y2H9)
[29] = molecular target: MERTK (human) (UniProt Q12866)
[30] = molecular target: MST1R (human) (UniProt Q04912)
[31] = molecular target: MYLK (human) (UniProt Q15746)
[32] = molecular target: MYO3B (human) (UniProt Q8WXR4)
[33] = molecular target: NEK11 (human) (UniProt Q8NG66)
[34] = molecular target: NTRK1 (human) (UniProt P04629)
[35] = molecular target: PAK6 (human) (UniProt Q9NQU5)
[36] = test system: PIK3CA (human), P42336 [E545A]
[37] = test system: PIK3CA (human), P42336 [H1047L]
[38] = test system: PIK3CA (human), P42336 [M1043I]
[39] = molecular target: PIM3 (human) (UniProt Q86V86)
[40] = molecular target: PIP4K2B (human) (UniProt P78356)
[41] = molecular target: PTK6 (human) (UniProt Q13882)
[42] = test system: RET (human), P07949 [V804L]
[43] = molecular target: SIK3 (human) (UniProt Q9Y2K2)

ACVR2A (human), sequence (P27037 whole entry, looked up): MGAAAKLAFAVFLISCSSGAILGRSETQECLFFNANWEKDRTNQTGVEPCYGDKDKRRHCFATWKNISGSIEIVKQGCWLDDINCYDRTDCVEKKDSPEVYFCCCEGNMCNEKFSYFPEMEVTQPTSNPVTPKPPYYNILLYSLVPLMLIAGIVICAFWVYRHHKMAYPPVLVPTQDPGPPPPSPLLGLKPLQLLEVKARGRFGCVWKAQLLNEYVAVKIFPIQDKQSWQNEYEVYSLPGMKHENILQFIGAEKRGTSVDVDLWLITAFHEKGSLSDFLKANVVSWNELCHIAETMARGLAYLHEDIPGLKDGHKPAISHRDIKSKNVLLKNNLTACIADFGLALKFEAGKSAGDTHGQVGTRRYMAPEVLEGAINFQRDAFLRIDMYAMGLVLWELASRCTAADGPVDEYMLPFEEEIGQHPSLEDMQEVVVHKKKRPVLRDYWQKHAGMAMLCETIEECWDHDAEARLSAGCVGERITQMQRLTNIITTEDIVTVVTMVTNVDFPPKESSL
PTK6 (human), sequence (Q13882 whole entry, looked up): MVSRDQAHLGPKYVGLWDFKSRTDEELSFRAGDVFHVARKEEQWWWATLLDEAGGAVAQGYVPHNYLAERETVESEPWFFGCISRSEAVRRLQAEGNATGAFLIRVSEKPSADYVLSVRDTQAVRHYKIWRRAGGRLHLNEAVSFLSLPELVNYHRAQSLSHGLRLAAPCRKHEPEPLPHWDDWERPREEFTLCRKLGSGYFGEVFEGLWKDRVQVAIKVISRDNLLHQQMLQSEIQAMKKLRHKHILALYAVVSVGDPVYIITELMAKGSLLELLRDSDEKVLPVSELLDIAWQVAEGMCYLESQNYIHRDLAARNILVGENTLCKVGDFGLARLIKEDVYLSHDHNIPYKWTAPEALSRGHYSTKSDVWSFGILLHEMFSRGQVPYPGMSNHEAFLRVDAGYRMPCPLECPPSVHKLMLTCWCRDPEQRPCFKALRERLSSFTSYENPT
MAST1 (human), sequence (Q9Y2H9 whole entry, looked up): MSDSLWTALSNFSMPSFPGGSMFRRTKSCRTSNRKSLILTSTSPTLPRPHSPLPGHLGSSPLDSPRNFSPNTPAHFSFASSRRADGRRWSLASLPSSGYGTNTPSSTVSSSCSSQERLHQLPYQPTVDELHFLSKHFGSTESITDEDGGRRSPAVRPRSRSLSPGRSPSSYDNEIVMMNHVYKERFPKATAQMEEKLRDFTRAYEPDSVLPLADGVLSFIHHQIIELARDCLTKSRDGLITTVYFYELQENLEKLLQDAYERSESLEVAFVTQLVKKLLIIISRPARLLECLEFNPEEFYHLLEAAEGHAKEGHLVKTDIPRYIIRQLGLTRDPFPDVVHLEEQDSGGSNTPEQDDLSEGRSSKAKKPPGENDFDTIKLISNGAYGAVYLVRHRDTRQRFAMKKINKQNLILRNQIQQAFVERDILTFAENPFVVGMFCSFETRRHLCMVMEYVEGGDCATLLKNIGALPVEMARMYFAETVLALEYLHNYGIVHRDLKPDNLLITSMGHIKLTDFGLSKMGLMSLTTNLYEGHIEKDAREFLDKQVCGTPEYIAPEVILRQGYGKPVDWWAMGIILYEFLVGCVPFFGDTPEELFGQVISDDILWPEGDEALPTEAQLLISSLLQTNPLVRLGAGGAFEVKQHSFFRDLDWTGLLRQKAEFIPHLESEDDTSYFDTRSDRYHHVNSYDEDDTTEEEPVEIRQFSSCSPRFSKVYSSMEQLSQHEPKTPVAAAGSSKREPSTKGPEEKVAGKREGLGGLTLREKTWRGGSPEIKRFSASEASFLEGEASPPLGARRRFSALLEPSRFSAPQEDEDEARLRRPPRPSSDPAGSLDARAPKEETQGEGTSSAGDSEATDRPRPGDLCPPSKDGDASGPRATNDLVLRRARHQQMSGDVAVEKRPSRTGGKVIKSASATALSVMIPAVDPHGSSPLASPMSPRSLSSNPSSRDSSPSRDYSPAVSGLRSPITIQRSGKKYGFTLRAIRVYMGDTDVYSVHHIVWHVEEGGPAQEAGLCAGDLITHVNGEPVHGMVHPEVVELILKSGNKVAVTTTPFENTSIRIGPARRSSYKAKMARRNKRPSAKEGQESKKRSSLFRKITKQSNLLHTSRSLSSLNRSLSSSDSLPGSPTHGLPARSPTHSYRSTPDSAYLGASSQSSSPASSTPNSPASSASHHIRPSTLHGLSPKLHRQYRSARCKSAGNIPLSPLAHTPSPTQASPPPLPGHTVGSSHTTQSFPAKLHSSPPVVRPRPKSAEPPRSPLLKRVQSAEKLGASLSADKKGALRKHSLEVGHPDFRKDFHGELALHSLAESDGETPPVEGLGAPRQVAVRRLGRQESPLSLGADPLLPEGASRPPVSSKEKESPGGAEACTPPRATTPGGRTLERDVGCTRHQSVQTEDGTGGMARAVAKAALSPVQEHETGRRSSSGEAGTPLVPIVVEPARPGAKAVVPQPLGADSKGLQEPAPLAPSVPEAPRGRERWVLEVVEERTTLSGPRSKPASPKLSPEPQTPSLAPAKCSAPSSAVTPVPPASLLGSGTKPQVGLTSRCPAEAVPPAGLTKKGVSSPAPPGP
MAP3K5 (human), sequence (Q99683 whole entry, looked up): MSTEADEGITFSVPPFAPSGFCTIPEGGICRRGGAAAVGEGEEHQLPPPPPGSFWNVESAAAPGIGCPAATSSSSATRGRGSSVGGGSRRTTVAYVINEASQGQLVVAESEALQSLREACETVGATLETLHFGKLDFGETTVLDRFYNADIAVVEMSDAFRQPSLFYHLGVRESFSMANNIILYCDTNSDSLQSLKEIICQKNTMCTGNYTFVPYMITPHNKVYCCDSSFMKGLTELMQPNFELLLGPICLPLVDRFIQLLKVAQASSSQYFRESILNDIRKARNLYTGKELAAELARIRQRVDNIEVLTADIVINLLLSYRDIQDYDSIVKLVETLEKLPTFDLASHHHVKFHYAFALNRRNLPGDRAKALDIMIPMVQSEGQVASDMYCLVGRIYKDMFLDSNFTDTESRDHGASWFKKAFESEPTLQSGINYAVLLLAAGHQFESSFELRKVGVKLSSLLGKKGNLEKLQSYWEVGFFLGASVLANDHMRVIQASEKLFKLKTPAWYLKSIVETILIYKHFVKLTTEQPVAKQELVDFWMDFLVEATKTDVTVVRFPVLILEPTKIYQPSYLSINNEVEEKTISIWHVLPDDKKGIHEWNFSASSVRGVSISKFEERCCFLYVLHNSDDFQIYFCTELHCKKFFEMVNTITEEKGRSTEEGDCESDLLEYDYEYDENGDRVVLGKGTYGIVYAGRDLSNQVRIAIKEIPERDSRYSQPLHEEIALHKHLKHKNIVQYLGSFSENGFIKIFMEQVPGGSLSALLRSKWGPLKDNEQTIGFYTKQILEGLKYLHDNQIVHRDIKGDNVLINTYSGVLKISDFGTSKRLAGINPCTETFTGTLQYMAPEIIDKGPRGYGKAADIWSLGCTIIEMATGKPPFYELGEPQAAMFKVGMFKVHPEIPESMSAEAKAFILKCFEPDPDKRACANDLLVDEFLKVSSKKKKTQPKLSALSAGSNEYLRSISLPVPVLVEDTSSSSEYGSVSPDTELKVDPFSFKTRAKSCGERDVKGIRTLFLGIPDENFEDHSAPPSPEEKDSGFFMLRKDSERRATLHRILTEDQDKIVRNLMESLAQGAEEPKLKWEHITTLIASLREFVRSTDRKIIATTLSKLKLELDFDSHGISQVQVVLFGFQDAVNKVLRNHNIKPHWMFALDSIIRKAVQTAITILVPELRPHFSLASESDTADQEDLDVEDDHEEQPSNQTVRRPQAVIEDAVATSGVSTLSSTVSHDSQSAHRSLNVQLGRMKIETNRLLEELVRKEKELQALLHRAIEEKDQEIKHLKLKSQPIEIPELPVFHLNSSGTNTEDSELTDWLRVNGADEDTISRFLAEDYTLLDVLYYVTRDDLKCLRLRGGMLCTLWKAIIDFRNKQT
AURKA (human), sequence (O14965 whole entry, looked up): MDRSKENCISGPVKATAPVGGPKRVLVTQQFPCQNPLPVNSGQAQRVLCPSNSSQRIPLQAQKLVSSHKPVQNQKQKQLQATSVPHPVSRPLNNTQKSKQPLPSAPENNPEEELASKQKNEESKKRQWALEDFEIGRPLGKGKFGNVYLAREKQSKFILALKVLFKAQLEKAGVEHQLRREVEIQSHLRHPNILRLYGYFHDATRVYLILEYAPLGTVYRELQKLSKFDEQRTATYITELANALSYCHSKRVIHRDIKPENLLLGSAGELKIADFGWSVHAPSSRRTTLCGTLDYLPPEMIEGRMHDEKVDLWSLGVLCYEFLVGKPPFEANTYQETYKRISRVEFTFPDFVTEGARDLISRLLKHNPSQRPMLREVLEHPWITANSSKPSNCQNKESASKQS
PIP4K2B (human), sequence (P78356 whole entry, looked up): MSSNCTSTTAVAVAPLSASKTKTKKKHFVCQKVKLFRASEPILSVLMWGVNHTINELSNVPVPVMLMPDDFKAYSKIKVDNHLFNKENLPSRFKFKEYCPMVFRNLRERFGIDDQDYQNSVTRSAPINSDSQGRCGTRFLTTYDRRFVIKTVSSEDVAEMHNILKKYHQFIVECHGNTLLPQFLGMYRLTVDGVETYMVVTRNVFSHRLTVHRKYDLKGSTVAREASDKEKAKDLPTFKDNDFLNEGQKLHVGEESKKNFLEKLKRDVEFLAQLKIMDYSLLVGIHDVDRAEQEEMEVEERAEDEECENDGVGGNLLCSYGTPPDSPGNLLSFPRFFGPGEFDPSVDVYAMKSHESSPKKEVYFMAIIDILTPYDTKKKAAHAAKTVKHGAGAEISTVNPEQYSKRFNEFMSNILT

## CN(C)C/C=C/C(=O)Nc1cccc(C(=O)Nc2ccc(Nc3nccc(/C(C#N)=C4\Nc5ccccc5S4)n3)cc2)c1
[1]
  kinase still bound, per cent of control: 79%
[2]
  kinase still bound, per cent of control: 82%
[3]
  kinase still bound, per cent of control: 100%
[4]
  kinase still bound, per cent of control: 100%
[5]
  kinase still bound, per cent of control: 93%
[6]
  kinase still bound, per cent of control: 42%
[7]
  kinase still bound, per cent of control: 96%
[8]
  kinase still bound, per cent of control: 100%
[9]
  kinase still bound, per cent of control: 59%
[10]
  kinase still bound, per cent of control: 96%
[11]
  kinase still bound, per cent of control: 100%
[12]
  kinase still bound, per cent of control: 80%
[13]
  kinase still bound, per cent of control: 100%
[14]
  kinase still bound, per cent of control: 100%
[15]
  kinase still bound, per cent of control: 32%
[16]
  kinase still bound, per cent of control: 62%
[17]
  kinase still bound, per cent of control: 73%
[18]
  kinase still bound, per cent of control: 51%
[19]
  kinase still bound, per cent of control: 81%
[20]
  kinase still bound, per cent of control: 12%
[21]
  kinase still bound, per cent of control: 41%
[22]
  kinase still bound, per cent of control: 57%
[23]
  kinase still bound, per cent of control: 100%
[24]
  kinase still bound, per cent of control: 100%
[25]
  kinase still bound, per cent of control: 100%
[26]
  kinase still bound, per cent of control: 100%
[27]
  kinase still bound, per cent of control: 95%
[28]
  kinase still bound, per cent of control: 100%
[29]
  kinase still bound, per cent of control: 66%
[30]
  kinase still bound, per cent of control: 100%
[31]
  kinase still bound, per cent of control: 100%
[32]
  kinase still bound, per cent of control: 100%
[33]
  kinase still bound, per cent of control: 100%
[34]
  kinase still bound, per cent of control: 100%
[35]
  kinase still bound, per cent of control: 100%
[36]
  kinase still bound, per cent of control: 100%
[37]
  kinase still bound, per cent of control: 100%
[38]
  kinase still bound, per cent of control: 100%
[39]
  kinase still bound, per cent of control: 100%
[40]
  kinase still bound, per cent of control: 81%
[41]
  kinase still bound, per cent of control: 100%
[42]
  kinase still bound, per cent of control: 100%
[43]
  kinase still bound, per cent of control: 100%

## CN(C)C/C=C/C(=O)Nc1cccc(C(=O)Nc2ccc(Nc3nccc(-c4cccnc4)n3)cc2)c1
[1]
  kinase still bound, per cent of control: 43%
[2]
  kinase still bound, per cent of control: 58%
[3]
  kinase still bound, per cent of control: 67%
[4]
  kinase still bound, per cent of control: 100%
[5]
  kinase still bound, per cent of control: 58%
[6]
  kinase still bound, per cent of control: 12%
[7]
  kinase still bound, per cent of control: 77%
[8]
  kinase still bound, per cent of control: 75%
[9]
  kinase still bound, per cent of control: 100%
[10]
  kinase still bound, per cent of control: 91%
[11]
  kinase still bound, per cent of control: 99%
[12]
  kinase still bound, per cent of control: 91%
[13]
  kinase still bound, per cent of control: 53%
[14]
  kinase still bound, per cent of control: 100%
[15]
  kinase still bound, per cent of control: 75%
[16]
  kinase still bound, per cent of control: 29%
[17]
  kinase still bound, per cent of control: 13%
[18]
  kinase still bound, per cent of control: 18%
[19]
  kinase still bound, per cent of control: 8.6%
[20]
  kinase still bound, per cent of control: 2.4%
[21]
  kinase still bound, per cent of control: 16%
[22]
  kinase still bound, per cent of control: 63%
[23]
  kinase still bound, per cent of control: 51%
[24]
  kinase still bound, per cent of control: 77%
[25]
  kinase still bound, per cent of control: 100%
[26]
  kinase still bound, per cent of control: 52%
[27]
  kinase still bound, per cent of control: 83%
[28]
  kinase still bound, per cent of control: 77%
[29]
  kinase still bound, per cent of control: 100%
[30]
  kinase still bound, per cent of control: 100%
[31]
  kinase still bound, per cent of control: 100%
[32]
  kinase still bound, per cent of control: 100%
[33]
  kinase still bound, per cent of control: 86%
[34]
  kinase still bound, per cent of control: 76%
[35]
  kinase still bound, per cent of control: 87%
[36]
  kinase still bound, per cent of control: 95%
[37]
  kinase still bound, per cent of control: 100%
[38]
  kinase still bound, per cent of control: 74%
[39]
  kinase still bound, per cent of control: 92%
[40]
  kinase still bound, per cent of control: 18%
[41]
  kinase still bound, per cent of control: 77%
[42]
  kinase still bound, per cent of control: 100%
[43]
  kinase still bound, per cent of control: 100%
